Experimental data reported in ChEMBL document CHEMBL5649169 (ChemMedChem, 2018).

Tests used:
[1] = target: Acetyl-CoA carboxylase 1 (Homo sapiens) (UniProt Q13085)
Homo sapiens [2] = organism: Homo sapiens
[3] = target: ADP-ribosylation factor-like protein 1 (Homo sapiens) (UniProt P40616)
[4] = target: T-complex protein 1 subunit eta (Homo sapiens) (UniProt Q99832)
Anamorsin (Homo sapiens) = Anamorsin (Homo sapiens) (UniProt Q6FI81)
[5] = target: H/ACA ribonucleoprotein complex subunit DKC1 (Homo sapiens) (UniProt O60832)
[6] = target: DnaJ homolog subfamily A member 3, mitochondrial (Homo sapiens) (UniProt Q96EY1)
Sequence of DnaJ homolog subfamily A member 3, mitochondrial (Homo sapiens) (Q96EY1 whole entry): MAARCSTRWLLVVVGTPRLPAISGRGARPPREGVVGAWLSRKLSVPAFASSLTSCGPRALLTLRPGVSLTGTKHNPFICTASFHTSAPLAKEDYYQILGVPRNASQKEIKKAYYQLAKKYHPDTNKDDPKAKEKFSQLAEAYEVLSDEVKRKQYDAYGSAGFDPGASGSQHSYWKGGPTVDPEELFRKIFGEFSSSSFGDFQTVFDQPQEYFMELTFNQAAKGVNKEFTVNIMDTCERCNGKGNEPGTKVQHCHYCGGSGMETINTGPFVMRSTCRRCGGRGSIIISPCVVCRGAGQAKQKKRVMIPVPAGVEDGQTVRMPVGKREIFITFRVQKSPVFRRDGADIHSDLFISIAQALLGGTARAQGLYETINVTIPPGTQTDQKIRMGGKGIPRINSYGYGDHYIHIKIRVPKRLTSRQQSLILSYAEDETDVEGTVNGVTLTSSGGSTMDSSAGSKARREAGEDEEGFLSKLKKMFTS

[7] = target: Mammalian ependymin-related protein 1 (Homo sapiens) (UniProt Q9UM22)
Sequence of Mammalian ependymin-related protein 1 (Homo sapiens) (Q9UM22 whole entry): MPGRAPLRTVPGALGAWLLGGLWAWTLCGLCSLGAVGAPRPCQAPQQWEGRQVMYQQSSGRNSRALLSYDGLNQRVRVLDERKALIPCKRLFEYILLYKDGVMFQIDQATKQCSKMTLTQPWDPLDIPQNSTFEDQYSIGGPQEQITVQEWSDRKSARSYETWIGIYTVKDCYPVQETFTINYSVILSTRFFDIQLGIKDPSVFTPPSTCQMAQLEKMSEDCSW

[8] = target: Enhancer of rudimentary homolog (Homo sapiens) (UniProt P84090)
[9] = target: Exocyst complex component 4 (Homo sapiens) (UniProt Q96A65)
[10] = target: GSK3B-interacting protein (Homo sapiens) (UniProt Q9P0R6)
[11] = target: Histone H1.10 (Homo sapiens) (UniProt Q92522)
[12] = target: Host cell factor 1 (Homo sapiens) (UniProt P51610)
[13] = target: Hepatoma-derived growth factor (Homo sapiens) (UniProt P51858)
[14] = target: Adenosine 5'-monophosphoramidase HINT1 (Homo sapiens) (UniProt P49773)
[15] = target: Minor histocompatibility antigen H13 (Homo sapiens) (UniProt Q8TCT9)
[16] = target: Heterogeneous nuclear ribonucleoprotein A0 (Homo sapiens) (UniProt Q13151)
[17] = target: Inner centromere protein (Homo sapiens) (UniProt Q9NQS7)
[18] = target: Importin-5 (Homo sapiens) (UniProt O00410)
[19] = target: Lysine--tRNA ligase (Homo sapiens) (UniProt Q15046)
Sequence of Lysine--tRNA ligase (Homo sapiens) (Q15046 2-597 limits assumed): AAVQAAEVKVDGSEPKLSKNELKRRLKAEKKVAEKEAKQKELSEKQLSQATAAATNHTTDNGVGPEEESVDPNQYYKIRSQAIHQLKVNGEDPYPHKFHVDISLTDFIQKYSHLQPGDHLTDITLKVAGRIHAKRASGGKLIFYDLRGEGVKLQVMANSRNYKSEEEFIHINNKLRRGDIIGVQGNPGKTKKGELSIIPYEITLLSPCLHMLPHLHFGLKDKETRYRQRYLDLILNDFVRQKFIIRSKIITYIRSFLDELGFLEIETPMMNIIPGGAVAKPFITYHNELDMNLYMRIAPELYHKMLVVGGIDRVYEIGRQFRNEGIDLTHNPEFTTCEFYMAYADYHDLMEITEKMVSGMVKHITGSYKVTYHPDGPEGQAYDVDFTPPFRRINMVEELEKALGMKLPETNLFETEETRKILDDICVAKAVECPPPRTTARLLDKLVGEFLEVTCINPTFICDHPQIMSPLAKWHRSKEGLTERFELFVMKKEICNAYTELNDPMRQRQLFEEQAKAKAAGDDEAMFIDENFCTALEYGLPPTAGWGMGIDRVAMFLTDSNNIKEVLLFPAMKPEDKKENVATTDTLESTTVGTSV

[20] = target: Mitogen-activated protein kinase 14 (Homo sapiens) (UniProt Q16539)
[21] = target: Mitogen-activated protein kinase 8 (Homo sapiens) (UniProt P45983)
[22] = target: Small ribosomal subunit protein uS17m (Homo sapiens) (UniProt Q9Y2R5)
Homo sapiens [23] = organism: Homo sapiens; remark: listed apart in the source
[24] = target: Phosphatidylinositol 5-phosphate 4-kinase type-2 gamma (Homo sapiens) (UniProt Q8TBX8)
[25] = target: Glycogen phosphorylase, liver form (Homo sapiens) (UniProt P06737)
Homo sapiens [26] = organism: Homo sapiens; remark: listed apart in the source
[27] = target: DNA repair protein RAD50 (Homo sapiens) (UniProt Q92878)
Sequence of DNA repair protein RAD50 (Homo sapiens) (Q92878 whole entry): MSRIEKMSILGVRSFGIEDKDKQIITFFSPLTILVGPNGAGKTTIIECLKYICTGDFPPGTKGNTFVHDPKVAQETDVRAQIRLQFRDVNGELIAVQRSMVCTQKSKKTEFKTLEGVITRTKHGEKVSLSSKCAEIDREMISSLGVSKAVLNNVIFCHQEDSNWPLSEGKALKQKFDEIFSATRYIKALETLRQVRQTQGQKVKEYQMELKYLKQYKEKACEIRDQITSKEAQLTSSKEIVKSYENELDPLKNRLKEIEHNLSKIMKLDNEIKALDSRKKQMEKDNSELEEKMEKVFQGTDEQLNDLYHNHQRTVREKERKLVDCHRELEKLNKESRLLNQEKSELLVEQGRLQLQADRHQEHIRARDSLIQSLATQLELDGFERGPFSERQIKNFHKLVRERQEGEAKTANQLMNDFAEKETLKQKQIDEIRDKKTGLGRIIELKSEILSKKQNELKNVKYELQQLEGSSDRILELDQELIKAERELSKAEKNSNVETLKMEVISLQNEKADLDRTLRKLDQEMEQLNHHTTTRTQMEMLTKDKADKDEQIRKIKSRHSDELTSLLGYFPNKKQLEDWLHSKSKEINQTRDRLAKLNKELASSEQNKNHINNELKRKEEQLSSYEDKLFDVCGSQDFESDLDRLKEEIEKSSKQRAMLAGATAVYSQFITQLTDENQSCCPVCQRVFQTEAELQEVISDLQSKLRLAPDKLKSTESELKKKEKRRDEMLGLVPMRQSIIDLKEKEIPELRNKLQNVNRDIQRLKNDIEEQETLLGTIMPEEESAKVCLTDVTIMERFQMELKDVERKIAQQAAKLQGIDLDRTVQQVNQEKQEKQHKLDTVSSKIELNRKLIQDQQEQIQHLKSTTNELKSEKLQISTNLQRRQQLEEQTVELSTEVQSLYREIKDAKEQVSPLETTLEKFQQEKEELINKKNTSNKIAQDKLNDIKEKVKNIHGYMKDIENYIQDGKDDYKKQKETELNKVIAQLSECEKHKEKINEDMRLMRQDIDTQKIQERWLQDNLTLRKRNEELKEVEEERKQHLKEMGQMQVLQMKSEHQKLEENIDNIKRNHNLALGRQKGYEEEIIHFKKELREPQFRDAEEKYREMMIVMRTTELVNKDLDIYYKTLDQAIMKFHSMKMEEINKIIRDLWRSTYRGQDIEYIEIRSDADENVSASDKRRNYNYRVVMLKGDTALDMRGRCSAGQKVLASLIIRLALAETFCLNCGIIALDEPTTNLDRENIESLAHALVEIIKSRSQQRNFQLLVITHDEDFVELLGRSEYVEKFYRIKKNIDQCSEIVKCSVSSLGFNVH

Homo sapiens [28] = organism: Homo sapiens; remark: listed apart in the source
[29] = target: Large ribosomal subunit protein uL5 (Homo sapiens) (UniProt P62913)
[30] = target: Large ribosomal subunit protein eL13 (Homo sapiens) (UniProt P26373)
[31] = target: Large ribosomal subunit protein eL15 (Homo sapiens) (UniProt P61313)
[32] = target: Large ribosomal subunit protein uL22 (Homo sapiens) (UniProt P18621)
[33] = target: Large ribosomal subunit protein uL24 (Homo sapiens) (UniProt P61254)
[34] = target: Large ribosomal subunit protein eL36 (Homo sapiens) (UniProt Q9Y3U8)
[35] = target: Large ribosomal subunit protein uL18 (Homo sapiens) (UniProt P46777)
[36] = target: Small ribosomal subunit protein uS7 (Homo sapiens) (UniProt P46782)
[37] = target: Small ribosomal subunit protein eS8 (Homo sapiens) (UniProt P62241)
[38] = target: Vesicle-trafficking protein SEC22b (Homo sapiens) (UniProt O75396)
Sequence of Vesicle-trafficking protein SEC22b (Homo sapiens) (O75396 whole entry): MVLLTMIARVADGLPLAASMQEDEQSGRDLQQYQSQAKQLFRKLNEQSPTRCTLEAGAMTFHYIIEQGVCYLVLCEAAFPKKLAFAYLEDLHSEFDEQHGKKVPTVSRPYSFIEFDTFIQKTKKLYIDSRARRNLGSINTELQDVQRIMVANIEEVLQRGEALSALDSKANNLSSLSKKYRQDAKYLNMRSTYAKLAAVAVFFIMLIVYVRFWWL

[39] = target: Splicing factor 3B subunit 1 (Homo sapiens) (UniProt O75533)
Sequence of Splicing factor 3B subunit 1 (Homo sapiens) (O75533 whole entry): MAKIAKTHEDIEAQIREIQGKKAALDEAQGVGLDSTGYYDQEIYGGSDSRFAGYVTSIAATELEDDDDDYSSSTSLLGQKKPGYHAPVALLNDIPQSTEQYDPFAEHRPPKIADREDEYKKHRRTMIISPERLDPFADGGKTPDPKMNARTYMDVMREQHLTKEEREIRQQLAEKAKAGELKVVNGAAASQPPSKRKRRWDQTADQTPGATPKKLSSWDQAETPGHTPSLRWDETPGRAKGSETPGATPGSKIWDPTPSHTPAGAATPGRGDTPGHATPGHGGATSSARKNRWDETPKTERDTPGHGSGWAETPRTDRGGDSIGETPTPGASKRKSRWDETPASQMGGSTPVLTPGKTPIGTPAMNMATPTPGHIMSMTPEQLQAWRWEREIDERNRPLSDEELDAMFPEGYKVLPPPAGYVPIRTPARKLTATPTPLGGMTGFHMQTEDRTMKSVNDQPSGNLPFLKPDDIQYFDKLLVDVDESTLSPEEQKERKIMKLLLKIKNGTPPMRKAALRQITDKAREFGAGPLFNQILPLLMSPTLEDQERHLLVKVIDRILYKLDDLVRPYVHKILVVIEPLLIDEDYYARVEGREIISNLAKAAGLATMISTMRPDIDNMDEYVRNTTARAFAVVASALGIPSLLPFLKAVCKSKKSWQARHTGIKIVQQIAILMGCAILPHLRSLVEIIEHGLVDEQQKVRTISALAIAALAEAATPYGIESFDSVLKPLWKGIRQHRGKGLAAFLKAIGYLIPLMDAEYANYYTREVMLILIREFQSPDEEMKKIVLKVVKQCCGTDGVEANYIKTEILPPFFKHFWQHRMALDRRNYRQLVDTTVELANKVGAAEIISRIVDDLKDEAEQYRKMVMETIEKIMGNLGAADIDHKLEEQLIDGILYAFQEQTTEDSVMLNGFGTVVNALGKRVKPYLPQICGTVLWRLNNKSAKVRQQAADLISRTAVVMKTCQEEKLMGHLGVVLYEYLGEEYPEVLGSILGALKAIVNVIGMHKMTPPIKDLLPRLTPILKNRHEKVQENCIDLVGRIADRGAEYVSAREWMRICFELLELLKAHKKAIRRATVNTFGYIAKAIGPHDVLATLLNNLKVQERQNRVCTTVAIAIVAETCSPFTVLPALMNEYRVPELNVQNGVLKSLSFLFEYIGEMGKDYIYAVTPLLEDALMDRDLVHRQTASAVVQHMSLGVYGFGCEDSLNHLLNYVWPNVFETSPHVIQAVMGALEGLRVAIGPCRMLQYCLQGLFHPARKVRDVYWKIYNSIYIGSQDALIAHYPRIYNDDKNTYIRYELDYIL

[40] = target: Spectrin alpha chain, non-erythrocytic 1 (Homo sapiens) (UniProt Q13813)
[41] = target: Serrate RNA effector molecule homolog (Homo sapiens) (UniProt Q9BXP5)
[42] = target: Serine/threonine-protein kinase 3 (Homo sapiens) (UniProt Q13188)
[43] = target: Dolichyl-diphosphooligosaccharide--protein glycosyltransferase subunit STT3A (Homo sapiens) (UniProt P46977)
Sequence of Dolichyl-diphosphooligosaccharide--protein glycosyltransferase subunit STT3A (Homo sapiens) (P46977 whole entry, the tested form may be a part): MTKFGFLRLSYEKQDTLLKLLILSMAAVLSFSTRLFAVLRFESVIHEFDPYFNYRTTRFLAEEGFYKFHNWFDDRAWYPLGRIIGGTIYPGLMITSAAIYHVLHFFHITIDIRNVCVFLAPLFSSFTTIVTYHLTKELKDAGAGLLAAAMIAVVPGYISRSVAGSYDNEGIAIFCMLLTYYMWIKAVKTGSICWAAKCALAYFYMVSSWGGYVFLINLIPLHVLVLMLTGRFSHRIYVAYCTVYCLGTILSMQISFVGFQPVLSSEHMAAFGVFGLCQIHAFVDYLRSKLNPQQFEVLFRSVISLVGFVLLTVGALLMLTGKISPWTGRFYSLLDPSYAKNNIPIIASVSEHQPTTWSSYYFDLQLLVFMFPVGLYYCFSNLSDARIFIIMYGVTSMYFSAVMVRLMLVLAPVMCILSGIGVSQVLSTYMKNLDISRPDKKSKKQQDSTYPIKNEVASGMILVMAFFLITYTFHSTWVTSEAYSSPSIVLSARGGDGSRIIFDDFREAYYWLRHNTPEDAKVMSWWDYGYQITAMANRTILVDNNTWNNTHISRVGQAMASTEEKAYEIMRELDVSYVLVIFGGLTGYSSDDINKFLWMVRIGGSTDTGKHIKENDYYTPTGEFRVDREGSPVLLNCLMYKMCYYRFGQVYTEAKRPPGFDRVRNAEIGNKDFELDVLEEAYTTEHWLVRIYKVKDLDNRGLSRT

[44] = target: TBC1 domain family member 15 (Homo sapiens) (UniProt Q8TC07)
[45] = target: DNA topoisomerase 2-alpha (Homo sapiens) (UniProt P11388)
[46] = target: U2 snRNP-associated SURP motif-containing protein (Homo sapiens) (UniProt O15042)
[47] = target: Neurosecretory protein VGF (Homo sapiens) (UniProt O15240)
Also: assay method not described here.

Sequence of ADP-ribosylation factor-like protein 1 (Homo sapiens) (P40616 whole entry): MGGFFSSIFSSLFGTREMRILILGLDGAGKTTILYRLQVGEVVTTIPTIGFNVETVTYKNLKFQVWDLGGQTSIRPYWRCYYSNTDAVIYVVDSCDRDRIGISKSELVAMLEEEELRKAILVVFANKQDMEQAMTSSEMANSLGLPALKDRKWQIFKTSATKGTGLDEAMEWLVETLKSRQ

**Q.** Which ED50 [1] does the source give for `Cc1ccc(C(=O)Nc2cccc(C(F)(F)F)c2)cc1Nc1nc(-c2cccnc2)nc2c1cnn2C` here?
**A.** 16400 nM

**Q.** And the ED50 (Homo sapiens [2])?
**A.** 3030 nM

**Q.** And the ED50 [3]?
**A.** 0.716 nM

**Q.** What about the ED50 [4] of the same compound?
**A.** 50300 nM

**Q.** And the ED50 (Anamorsin (Homo sapiens))?
**A.** 67.3 nM

**Q.** And the ED50 [5]?
**A.** 3140 nM

**Q.** What about the ED50 [6] of the same compound?
**A.** 1.01 nM

**Q.** And the ED50 [7]?
**A.** 362 nM

**Q.** What about the ED50 [8] of the same compound?
**A.** 8.95 nM

**Q.** And the ED50 [9]?
**A.** 11400 nM

**Q.** What about the ED50 [10] of the same compound?
**A.** 29.1 nM

**Q.** What about the ED50 [11] of the same compound?
**A.** 7240 nM

**Q.** What about the ED50 [12] of the same compound?
**A.** 1410 nM

**Q.** And the ED50 [13]?
**A.** 4.9 nM

**Q.** What about the ED50 [14] of the same compound?
**A.** 5.51 nM

**Q.** What about the ED50 [15] of the same compound?
**A.** 9930 nM

**Q.** And the ED50 [16]?
**A.** 4390 nM

**Q.** What about the ED50 [17] of the same compound?
**A.** 3420 nM

**Q.** What about the ED50 [18] of the same compound?
**A.** 4.45 nM

**Q.** And the ED50 [19]?
**A.** 758 nM

**Q.** What about the ED50 [20] of the same compound?
**A.** 1000 nM

**Q.** What about the ED50 [21] of the same compound?
**A.** 3440 nM

**Q.** What about the ED50 [22] of the same compound?
**A.** 421 nM

**Q.** And the ED50 (Homo sapiens [23])?
**A.** 3660 nM

**Q.** And the ED50 [24]?
**A.** 290 nM

**Q.** What about the ED50 [25] of the same compound?
**A.** 2.39 nM

**Q.** What about the ED50 (Homo sapiens [26]) of the same compound?
**A.** 322000 nM

**Q.** What about the ED50 [27] of the same compound?
**A.** 8820 nM

**Q.** And the ED50 (Homo sapiens [28])?
**A.** 17400 nM

**Q.** What about the ED50 [29] of the same compound?
**A.** 39.5 nM

**Q.** And the ED50 [30]?
**A.** 13900 nM

**Q.** And the ED50 [31]?
**A.** 425 nM

**Q.** And the ED50 [32]?
**A.** 6610 nM

**Q.** And the ED50 [33]?
**A.** 6180 nM

**Q.** And the ED50 [34]?
**A.** 10500 nM

**Q.** What about the ED50 [35] of the same compound?
**A.** 862 nM

**Q.** And the ED50 [36]?
**A.** 176 nM

**Q.** And the ED50 [37]?
**A.** 1620 nM

**Q.** What about the ED50 [38] of the same compound?
**A.** 103000 nM

**Q.** What about the ED50 [39] of the same compound?
**A.** 2850 nM

**Q.** And the ED50 [40]?
**A.** 80 nM

**Q.** And the ED50 [41]?
**A.** 1130 nM

**Q.** And the ED50 [42]?
**A.** 14200 nM

**Q.** What about the ED50 [43] of the same compound?
**A.** 1120 nM

**Q.** What about the ED50 [44] of the same compound?
**A.** 829 nM

**Q.** And the ED50 [45]?
**A.** 56.2 nM

**Q.** What about the ED50 [46] of the same compound?
**A.** 19.4 nM

**Q.** What about the ED50 [47] of the same compound?
**A.** 2220 nM

**Q.** Which ED50 [1] does the source give for `Cc1ccc(C(=O)Nc2cccc(C(F)(F)F)c2)cc1Nc1nc(-c2cccnc2)nc2nn(C)cc12` here?
**A.** 48.6 nM

**Q.** And the ED50 (Homo sapiens [2])?
**A.** 7500 nM

**Q.** What about the ED50 [3] of the same compound?
**A.** 2850 nM

**Q.** What about the ED50 [4] of the same compound?
**A.** 117 nM

**Q.** What about the ED50 (Anamorsin (Homo sapiens)) of the same compound?
**A.** 78800 nM

**Q.** And the ED50 [5]?
**A.** 5990 nM

**Q.** What about the ED50 [6] of the same compound?
**A.** 193 nM

**Q.** And the ED50 [7]?
**A.** 16 nM

**Q.** What about the ED50 [8] of the same compound?
**A.** 806 nM

**Q.** What about the ED50 [9] of the same compound?
**A.** 48.8 nM

**Q.** And the ED50 [10]?
**A.** 1810 nM

**Q.** What about the ED50 [11] of the same compound?
**A.** 16.7 nM

**Q.** What about the ED50 [12] of the same compound?
**A.** 52.3 nM

**Q.** And the ED50 [13]?
**A.** 12400 nM

**Q.** And the ED50 [14]?
**A.** 318 nM

**Q.** And the ED50 [15]?
**A.** 10600 nM

**Q.** And the ED50 [16]?
**A.** 17.4 nM

**Q.** And the ED50 [17]?
**A.** 229 nM

**Q.** And the ED50 [18]?
**A.** 342 nM

**Q.** What about the ED50 [19] of the same compound?
**A.** 1770 nM

**Q.** What about the ED50 [20] of the same compound?
**A.** 18200 nM

**Q.** What about the ED50 [21] of the same compound?
**A.** 45.2 nM

**Q.** And the ED50 [22]?
**A.** 30.5 nM

**Q.** And the ED50 (Homo sapiens [23])?
**A.** 17500 nM

**Q.** And the ED50 [24]?
**A.** 5.8 nM

**Q.** And the ED50 [25]?
**A.** 5790 nM

**Q.** And the ED50 (Homo sapiens [26])?
**A.** 71.8 nM

**Q.** What about the ED50 [27] of the same compound?
**A.** 1740 nM

**Q.** And the ED50 (Homo sapiens [28])?
**A.** 30.1 nM

**Q.** And the ED50 [29]?
**A.** 1630 nM

**Q.** And the ED50 [30]?
**A.** 19.6 nM

**Q.** And the ED50 [31]?
**A.** 59.2 nM

**Q.** What about the ED50 [32] of the same compound?
**A.** 15800 nM

**Q.** What about the ED50 [33] of the same compound?
**A.** 16.2 nM

**Q.** And the ED50 [34]?
**A.** 10.3 nM

**Q.** What about the ED50 [35] of the same compound?
**A.** 11500 nM

**Q.** What about the ED50 [36] of the same compound?
**A.** 50.1 nM

**Q.** And the ED50 [37]?
**A.** 9510 nM

**Q.** What about the ED50 [38] of the same compound?
**A.** 3320 nM

**Q.** What about the ED50 [39] of the same compound?
**A.** 3000 nM

**Q.** And the ED50 [40]?
**A.** 120 nM

**Q.** And the ED50 [41]?
**A.** 1290 nM

**Q.** What about the ED50 [42] of the same compound?
**A.** 9320 nM

**Q.** What about the ED50 [43] of the same compound?
**A.** 9.86 nM

**Q.** And the ED50 [44]?
**A.** 34900 nM

**Q.** What about the ED50 [45] of the same compound?
**A.** 58.5 nM

**Q.** And the ED50 [46]?
**A.** 1910 nM

**Q.** And the ED50 [47]?
**A.** 2660 nM
